Consider four compounds from patent US20240174690A1, “ANNULATED 2-AMINO-3-CYANO THIOPHENES AND DERIVATIVES FOR THE TREATMENT OF CANCER” (BOEHRINGER INGELHEIM INTERNATIONAL GMBH, priority 2021, published 2024).

The target of data set [1] is KRAS (G12C)::SOS1 (Homo sapiens (Human), UniProt P01116, C118S/C51S/C80L/G12C). The data set is described as follows: KRAS::SOS1 AlphaScreen binding assay, KRAS G12C. Summed up:
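Compounds (up to 100 μM, eleven fivefold dilutions in duplicate) were incubated 30 min with KRAS 1-169 (10 nM, or 7.5 nM for G12C), GST-SOS1 564-1049 (5 nM for G12D/G12C, 10 nM for others) and 10 μM GDP in PBS buffer with BSA and Tween. Donor/acceptor beads were then added for 60 min at room temperature, and IC50 came from a 4-parameter fit of the AlphaScreen signal.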
In general terms: Bead proximity is the source of the signal in Alpha formats.

Data set [2] relates to KRAS G12D-dependent Ba/F3 cells. The data set can be described thus: Ba/F3 proliferation assay, KRAS G12D. Type of data set: cell-based. As to conditions: Mus musculus, BaF3, 72 h, AlamarBlue. Summed up: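 IL-3-independent Ba/F3 lines carrying retrovirally introduced KRAS G12C, G12D or G12V; puromycin withdrawn ~10 days before assay. Duplicate treatments, AlamarBlue fluorescence readout, curve-fit analysis.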
A general note: The colour change of resazurin is a common sign of viable cells or microbes.

Data set [3] has as its target CYP3A4 (Homo sapiens (Human), UniProt P08684). The data set is described as follows: Mechanism based inhibition of CYP3A4 assay (MBI 3A4). The data set is classed as in vitro ADME. To be noted: hydroxy-midazolam formation after 30 min vs 0 min preincubation, 25 uM, human liver microsomes. Summed up: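 Readout is hydroxy-midazolam formed after 30 min preincubation relative to 0 min, measured by LC/MS-MS after acetonitrile quench. Following preincubation, samples diluted 1:10 and incubated 15 min with midazolam substrate.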
(Microsomes from liver hold many membrane-bound enzymes, among them those of drug oxidation.)

Sequence of CYP3A4 (P08684 whole entry): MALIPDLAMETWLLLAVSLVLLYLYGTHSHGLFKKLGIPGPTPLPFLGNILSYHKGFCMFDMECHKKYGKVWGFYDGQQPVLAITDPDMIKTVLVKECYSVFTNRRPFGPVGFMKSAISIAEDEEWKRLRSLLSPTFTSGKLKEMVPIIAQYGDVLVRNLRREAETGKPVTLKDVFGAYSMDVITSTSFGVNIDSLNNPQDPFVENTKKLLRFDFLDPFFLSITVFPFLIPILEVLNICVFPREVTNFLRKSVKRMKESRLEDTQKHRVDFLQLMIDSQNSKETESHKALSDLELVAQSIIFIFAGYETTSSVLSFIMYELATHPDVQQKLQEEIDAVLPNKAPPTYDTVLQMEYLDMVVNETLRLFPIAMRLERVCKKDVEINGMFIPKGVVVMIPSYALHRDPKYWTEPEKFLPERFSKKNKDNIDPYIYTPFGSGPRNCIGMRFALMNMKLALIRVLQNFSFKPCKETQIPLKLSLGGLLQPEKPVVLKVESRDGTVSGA
Sequence of KRAS (G12C)::SOS1 (P01116 other isoform, or with tags, fused parts or gaps G12C/C51S/C80L/C118S): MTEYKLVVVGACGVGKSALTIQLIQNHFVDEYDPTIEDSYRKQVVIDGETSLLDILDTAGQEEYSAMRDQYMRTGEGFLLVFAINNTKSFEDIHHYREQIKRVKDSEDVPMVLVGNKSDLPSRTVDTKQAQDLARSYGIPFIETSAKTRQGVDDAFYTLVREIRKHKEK

By IC50 is commonly meant the midpoint of a concentration-inhibition curve. Low values mean greater potency, high ones weaker potency. `C[C@H](Oc1cc(-n2ccnc2)nc(-c2noc3c2CCC[C@@]32CCCc3sc(N)c(C#N)c32)n1)[C@@H]1C[C@@H](F)CN1C` [II-120]: the IC50 in data set [1] turned out to be 0.002 µM; in data set [2], 0.149 µM. Further, the “MBI 3A4” value in data set [3] is on record as 71%.

In the case of `COCc1cn(-c2cc(O[C@@H](C)[C@@H]3CCCN3C)nc(-c3noc4c3CCC[C@@]43CCCc4sc(N)c(C#N)c43)n2)nn1` [II-121], the results for the IC50 in data set [1] and in data set [2] were 0.002 µM and 0.077 µM, respectively. In data set [3], the “MBI 3A4” value is reported as 56%.

As to `CNC(=O)c1cn(-c2cc(O[C@@H](C)[C@@H]3CCCN3C)nc(-c3noc4c3CCC[C@@]43CCCc4sc(N)c(C#N)c43)n2)nn1` [II-122], the figures for the IC50 in data set [1] and in data set [2] were 0.002 µM and 0.132 µM, respectively. Further, the “MBI 3A4” value in data set [3] was determined as 68%.

Regarding `C[C@H](Oc1cc(-n2cc(-c3cccnc3)nn2)nc(-c2noc3c2CCC[C@@]32CCCc3sc(N)c(C#N)c32)n1)[C@@H]1CCCN1C` [II-123], the IC50 was 0.002 µM in data set [1] and 0.093 µM in data set [2]. The “MBI 3A4” value in data set [3] stood at 64%.
